Data on 16 compounds can be found in patent US4977153A, “3-aminopropyloxyphenyl derivatives, pharmaceutical compositions containing them and method for the therapy of diseases” (Louis; William J., priority 1985, dated 1990).

Read-outs that look alike come from different tables or passages of the source.

In data set [1] the target is T1, beta adrenoceptor (guinea pig atrium) (Cavia porcellus, UniProt H0W3H1).
T1 construct: in the spontaneously beating guinea pig atrium; from tissue; host or cells: guinea pig atrium, spontaneously beating
As to the kind of experiment: beta adrenoceptor blocking activity in the spontaneously beating guinea pig atrium (inhibition of positive chronotropic isoproterenol effect). The format is cell-based.

For data set [2], the target named is T2, beta adrenoceptor (heart) (Rattus norvegicus, UniProt P18090).
T2 construct: from tissue; host or cells: heart in the whole animal (pithed rat, in vivo)
Briefly: inhibition of isoproterenol-induced tachycardia in the pithed rat. The format is in vivo. To be noted: read-out: Pithed Rat Effective Dose (ID50).

Data set [3] addresses T3, beta adrenoceptor (guinea pig trachea) (Cavia porcellus, UniProt Q8K4Z4).
T3 construct: tracheal preparations of the guinea pig; from tissue; host or cells: guinea pig tracheal muscle
Briefly: inhibition of isoproterenol-induced relaxation in guinea pig tracheal preparations (cardioselectivity). The format is cell-based. The note with it: guinea pig trachea, in words.

Data set [4] concerns resting heart rate in the pithed rat. As to the kind of experiment: intrinsic sympathomimetic activity: increase in resting heart rate in the pithed rat. To be noted: maximum effect of cumulative doses of drug up to 3 mg/kg. The data set is classed as in vivo.
The test system of data set [5] is beta adrenoceptor (guinea pig trachea). Briefly: inhibition of isoproterenol-induced relaxation in guinea pig tracheal preparations (cardioselectivity). The format is cell-based. The note with it: selectivity index, guinea pig trachea vs atrium.
For data set [6] the following is noted: in words; cited from earlier work.
For data set [7], the system named is resting heart rate in the pithed rat. The note with it: in words; cited from earlier work.
Setting [8] is: dose which doubles the concentration of isoproterenol needed to elicit a 50% increase in heart rate, spontaneously beating guinea pig atrium, read-out: Guinea Pig Atrium, Effective Molar Dose (ID50).
[9] abbreviates: inhibition of isoproterenol-induced tachycardia, pithed rat.

T1 sequence (H0W3H1 1-470): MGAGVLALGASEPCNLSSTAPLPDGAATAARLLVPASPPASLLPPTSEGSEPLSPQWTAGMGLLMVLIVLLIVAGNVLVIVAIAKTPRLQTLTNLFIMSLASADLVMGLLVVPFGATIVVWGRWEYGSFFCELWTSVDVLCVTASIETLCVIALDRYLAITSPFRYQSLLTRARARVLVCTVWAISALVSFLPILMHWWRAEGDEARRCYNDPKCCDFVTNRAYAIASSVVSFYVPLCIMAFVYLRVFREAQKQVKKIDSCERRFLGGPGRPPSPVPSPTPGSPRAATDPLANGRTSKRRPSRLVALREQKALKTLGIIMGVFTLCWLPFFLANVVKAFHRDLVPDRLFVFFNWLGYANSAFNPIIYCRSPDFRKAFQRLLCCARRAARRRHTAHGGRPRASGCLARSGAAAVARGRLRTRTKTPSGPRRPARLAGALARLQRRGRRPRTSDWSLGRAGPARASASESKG
T2 sequence (P18090 whole entry): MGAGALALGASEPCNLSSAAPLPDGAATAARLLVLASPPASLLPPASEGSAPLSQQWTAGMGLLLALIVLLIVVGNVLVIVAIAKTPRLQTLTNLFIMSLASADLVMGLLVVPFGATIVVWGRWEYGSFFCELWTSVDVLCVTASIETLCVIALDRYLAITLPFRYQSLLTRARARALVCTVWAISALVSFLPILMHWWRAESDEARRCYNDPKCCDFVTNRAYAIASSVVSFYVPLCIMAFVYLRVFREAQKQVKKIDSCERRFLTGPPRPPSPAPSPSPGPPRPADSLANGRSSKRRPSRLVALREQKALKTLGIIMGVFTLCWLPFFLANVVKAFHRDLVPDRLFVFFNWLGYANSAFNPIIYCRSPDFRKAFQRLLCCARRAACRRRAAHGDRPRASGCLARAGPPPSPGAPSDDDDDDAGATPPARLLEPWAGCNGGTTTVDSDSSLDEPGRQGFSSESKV
T3 sequence (Q8K4Z4 whole entry): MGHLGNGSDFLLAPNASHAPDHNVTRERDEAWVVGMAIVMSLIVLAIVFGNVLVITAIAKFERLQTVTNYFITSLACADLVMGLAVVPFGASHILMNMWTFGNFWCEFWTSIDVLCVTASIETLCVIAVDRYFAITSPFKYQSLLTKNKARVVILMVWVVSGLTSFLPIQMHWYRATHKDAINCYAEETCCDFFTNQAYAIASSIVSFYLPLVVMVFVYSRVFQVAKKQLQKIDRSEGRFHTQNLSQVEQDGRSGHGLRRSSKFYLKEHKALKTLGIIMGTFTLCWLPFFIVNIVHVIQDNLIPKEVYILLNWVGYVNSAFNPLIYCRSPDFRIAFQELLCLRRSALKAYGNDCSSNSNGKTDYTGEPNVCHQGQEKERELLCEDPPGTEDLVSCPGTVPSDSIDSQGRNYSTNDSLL

Take `CC(C)NCC(O)COc1ccc(CC(N)=O)cc1` (stereo not drawn) [Atenolol, reference compound]: in data set [1], the Kb amounted to 0.2 µM. Also, in data set [2] (rat), the ED50 is 0.03 mg/kg. In addition, in data set [3], the “blocking actions of the isoproterenol response in the trachea” value was “significant blocking actions of the isoproterenol response in the trachea”. In data set [4], the “Maximum Change in Resting Heart Rate in the Pithed Rat” value (shortened to “Maximum Change in Resting Heart Rate”) was 0. Regarding `CC(C)NCC(O)COc1ccc(CCOCC2CC2)cc1` (stereo not drawn) [Betaxolol, reference compound], in data set [4], the “Maximum Change in Resting Heart Rate” value is listed as 0.

Consider `CCCOCCOc1ccc(OCC(O)CNCCNC(=O)Nc2ccc3[nH]ccc3c2)c(C#N)c1` (stereo not drawn) [Example 1, N-[2-[3-[2-cyano-4-(2-propoxyethoxy)phenoxy]-2-hydroxypropylamino]-ethyl]-N'-(1H-indol-5-yl)-urea], for which, in data set [1] (setting [8]), the Kb amounted to 0.003 µM. The ED50 in data set [2] (setting [9]) stood at 0.002 mg/kg. Also, the “selectivity (cardiac atrial vs tracheal)” value in data set [5] is given as 17000. Moreover, in data set [4], the “Maximum Change in Resting Heart Rate” value was “+101”. Take `COCCOc1ccc(OCC(O)CNCCNC(=O)Nc2ccc3[nH]ccc3c2)c(C#N)c1` (stereo not drawn) [Example 6]: in data set [1] (setting [8]), the Kb was 0.013 µM. For `CCCOCCOc1ccc(OCC(O)CNCCNC(=O)Cc2ccc3[nH]ccc3c2)c(C#N)c1` (stereo not drawn) [Example 9], the Kb in data set [1] (setting [8]) worked out at 0.025 µM. As for `CCCOCCOc1ccc(OCC(O)CNCCNC(=O)Cc2ccsc2)c(C#N)c1` (stereo not drawn) [Example 11], the Kb in data set [1] (setting [8]) worked out at 0.012 µM. For the same compound, the “Maximum Change in Resting Heart Rate” value in data set [4] is on record as “+66”.

For `CCCCOCCOc1ccc(OCC(O)CNCCNC(=O)Nc2ccc3[nH]ccc3c2)c(C#N)c1` (stereo not drawn) [Example 13], the “Maximum Change in Resting Heart Rate” value in data set [4] was “+105”. `N#Cc1cc(OCCOCCc2ccccc2)ccc1OCC(O)CNCCNC(=O)Nc1ccc2[nH]ccc2c1` (stereo not drawn) [Example 14]: the Kb in data set [1] (setting [8]) amounted to 0.01 µM.

In the case of `N#Cc1cc(OCCOCc2ccc(F)cc2)ccc1OCC(O)CNCCNC(=O)Nc1ccc2[nH]ccc2c1` (stereo not drawn) [Example 19], the Kb in data set [1] (setting [8]) was 0.1 µM. Moreover, the ED50 in data set [2] (setting [9]) was 0.1 mg/kg. In addition, the “Maximum Change in Resting Heart Rate” value in data set [4] is listed as “+51”. For `CCCOCCOc1ccc(OCC(O)CNCCNC(=O)c2ccc3[nH]ccc3c2)c(C#N)c1` (stereo not drawn) [Example 20], the Kb in data set [1] (setting [8]) turned out to be 0.05 µM.

For the compound `O=C(NCCNCC(O)COc1ccc(OCCOCC2CC2)cc1)c1ccco1` (stereo not drawn) [Example 23], the ED50 in data set [2] (setting [9]) came to 0.03 mg/kg. The “Maximum Change in Resting Heart Rate” value in data set [4] is recorded as “+42”. In the case of `CCCOCCOc1ccc(OCC(O)CNCCNC(=O)c2ccoc2)cc1` (stereo not drawn) [Example 28], the ED50 in data set [2] (setting [9]) turned out to be 0.003 mg/kg. `CCCOCCOc1ccc(OCC(O)CN[C@H](C)CNC(=O)c2ccco2)cc1` (stereo partly drawn) [Example 29]: the Kb in data set [1] (setting [8]) is 0.03 µM. In addition, the ED50 in data set [2] (setting [9]) amounted to 0.05 mg/kg. In the case of `CCCOCCOc1ccc(OCC(O)CN[C@H](C)CNC(=O)c2ccco2)c(F)c1` (stereo partly drawn) [Example 33], the Kb in data set [1] (setting [8]) was 0.008 µM. Consider `CC(C)NCC(O)COc1cccc2[nH]ccc12` (stereo not drawn) [Pindolol, reference compound], for which the “Maximum Change in Resting Heart Rate” value in data set [4] is given as “+89”. Consider `CC(C)NCC(O)COc1cccc2ccccc12` (stereo not drawn) [Propranolol], for which, in data set [4], the “Maximum Change in Resting Heart Rate” value stood at 0. In addition, in data set [6], the “plasma cholesterol effect, known drug” value is given as “elevated plasma cholesterol” and the “rebound hypersensitivity after cessation, known drug” value is “rebound hypersensitivity occurring after cessation”. Besides, in data set [7], the “intrinsic sympathomimetic activity (ISA), known drug” value was “no ISA”.
